± gives the standard deviation of the averaged measurements.
Tested on: McpC ligand-binding domain (Salmonella Typhimurium SL1344)
Assay: protein melting temperature (Tm) in presence of compound (degrees C); higher = more thermal stabilisation (possible ligand binding)
Conditions: compound stock concentration: 10-20 mM, 2 uL in 10 uL reaction

SMILES: NCC(=O)CCC(=O)O [d-Amino-levulinic acid]
- protein melting temperature (Biolog plate: PM05): 43.8

SMILES: OC[C@@]12OC[C@@H](O1)[C@@H](O)[C@@H](O)[C@@H]2O [Sedoheptulosan]
- protein melting temperature (Biolog plate: PM02A): 44.3

SMILES: N[C@@H](CS(=O)(=O)O)C(=O)O [L-Cysteic acid]
- protein melting temperature (Biolog plate: PM04A): 43.1

SMILES: N[C@@H](Cc1c[nH]cn1)C(=O)O [L-Histidine]
- protein melting temperature (Biolog plate: PM02A): 44.7
- protein melting temperature (Biolog plate: PM03B): 44.8
- protein melting temperature (Biolog plate: PM05): 44.6

SMILES: C[C@@H](O)CC(=O)O [b-Hydroxybutyric acid]
- protein melting temperature (Biolog plate: PM02A): 44.6

SMILES: CO[C@H]1O[C@H](CO)[C@H](O)[C@H](O)[C@H]1O [a-Methyl-D-Galactoside]
- protein melting temperature (Biolog plate: PM01): 44.9

SMILES: O=c1ccn([C@H]2C[C@H](O)[C@@H](CO)O2)c(=O)[nH]1 [2`-Deoxyuridine]
- protein melting temperature (Biolog plate: PM05): 44.4

SMILES: CC(=O)N[C@@H](CS)C(=O)O [N-Acetyl-L-Cysteine]
- protein melting temperature (Biolog plate: PM04A): 43.7

SMILES: C[C@@H](O)[C@H](O)[C@H](O)[C@@H](O)C=O [D-Fucose]
- protein melting temperature (Biolog plate: PM02A): 43.3

SMILES: O=C(O)[C@H](O)[C@@H](O)[C@H](O)[C@H](O)COP(=O)(O)O [6-Phospho-Gluconic acid]
- protein melting temperature (Biolog plate: PM04A): 43.6

SMILES: O[C@@H]1[C@H](O)[C@H](O)CO[C@H]1O [D-Ribose]
- protein melting temperature (Biolog plate: PM01): 44.2

SMILES: OC[C@H]1O[C@H](OC[C@H]2O[C@H](OC[C@H]3O[C@H](O[C@]4(CO)O[C@H](CO)[C@@H](O)[C@@H]4O)[C@H](O)[C@@H](O)[C@@H]3O)[C@H](O)[C@@H](O)[C@H]2O)[C@H](O)[C@@H](O)[C@H]1O [Stachyose]
- protein melting temperature (Biolog plate: PM02A): 44.5

SMILES: NCCS(=O)(=O)O [Taurine]
- protein melting temperature (Biolog plate: PM04A): 44.2

SMILES: Nc1nc2c(ncn2[C@@H]2O[C@H](CO)[C@@H](O)[C@H]2OP(=O)(O)O)c(=O)[nH]1 [Guanosine 2`-Monophosphate]
- protein melting temperature (Biolog plate: PM04A): 44

SMILES: OC[C@H]1O[C@@H](n2cnc3c(O)nc(O)nc32)[C@H](O)[C@@H]1O [Xanthosine]
- protein melting temperature (Biolog plate: PM03B): 44.3

SMILES: C[C@H](N)C(=O)N[C@H](C(=O)O)[C@@H](C)O [Ala-Thr]
- protein melting temperature (Biolog plate: PM03B): 45.1

SMILES: O=P1(O)OP(=O)(O)OP(=O)(O)O1 [Trimetaphosphate]
- protein melting temperature (Biolog plate: PM04A): 44.7

SMILES: Cc1cc2nc3c(=O)[nH]c(=O)nc-3n(C[C@H](O)[C@H](O)[C@H](O)CO)c2cc1C [Riboflavin]
- protein melting temperature (Biolog plate: PM05): 43.6

SMILES: O=S(=O)(O)SSS(=O)(=O)O [Tetrathionate]
- protein melting temperature (Biolog plate: PM04A): 42.7

SMILES: O=C(O)[C@@H](O)[C@@H](O)[C@H](O)[C@@H](O)C(=O)O [D-Saccharic acid]
- protein melting temperature (Biolog plate: PM01): 44.4

SMILES: NCCc1ccccc1 [b-Phenylethylamine]
- protein melting temperature (Biolog plate: PM03B): 44.6

SMILES: Cc1ncc(CO)c(CO)c1O [Pyridoxine]
- protein melting temperature (Biolog plate: PM05): 43.8

SMILES: OC[C@@H]1OC(O)[C@@H](O)[C@H](O)[C@H]1O (stereo partly drawn) [L-Glucose]
- protein melting temperature (Biolog plate: PM02A): 44.4

SMILES: NC(N)=S [Thiourea]
- protein melting temperature (Biolog plate: PM04A): 44.6

SMILES: O=C[C@H](O)[C@@H](O)[C@H](O)[C@H](O)COP(=O)(O)O [D-Glucose-6-Phosphate]
- protein melting temperature (Biolog plate: PM01): 44.6
- protein melting temperature (Biolog plate: PM04A): 43.8

SMILES: CO[C@H]1O[C@H](CO)[C@@H](O)[C@H](O)[C@@H]1O [a-Methyl-D-Mannoside]
- protein melting temperature (Biolog plate: PM02A): 44.9

SMILES: Nc1ccn([C@@H]2O[C@H](CO)[C@@H](O)[C@H]2OP(=O)(O)O)c(=O)n1 [Cytidine 2`-Monophosphate]
- protein melting temperature (Biolog plate: PM04A): 43.7

SMILES: C[C@H](O)[C@@H](N)C(=O)O [D-Threonine]
- protein melting temperature (Biolog plate: PM01): 44

SMILES: NC(N)=O [Urea]
- protein melting temperature (Biolog plate: PM03B): 46.5

SMILES: C[N+](C)(C)CC(O)CC(=O)[O-] (racemic) [D,L-Carnitine]
- protein melting temperature (Biolog plate: PM02A): 44.4

SMILES: N[C@@H](CCC(=O)O)C(=O)O [L-Glutamic acid]
- protein melting temperature (Biolog plate: PM01): 44.2
- protein melting temperature (Biolog plate: PM03B): 44.8
- protein melting temperature (Biolog plate: PM05): 44.2

SMILES: OC[C@H]1O[C@H](O)[C@H](O)[C@@H](O)[C@@H]1O [a-D-Glucose]
- protein melting temperature (Biolog plate: PM01): 44.9
- protein melting temperature (Biolog plate: PM05): 42.9

SMILES: Nc1nc(=O)c2nc(CNc3ccc(C(=O)N[C@@H](CCC(=O)O)C(=O)O)cc3)cnc2[nH]1 [Folic acid]
- protein melting temperature (Biolog plate: PM05): 43.8

SMILES: N[C@@H](CCC(=O)N[C@@H](CS)C(=O)NCC(=O)O)C(=O)O [Glutathione]
- protein melting temperature (Biolog plate: PM04A): 43.7
- protein melting temperature (Biolog plate: PM05): 43.6

SMILES: O=c1[nH]c(=O)c2nc[nH]c2[nH]1 [Xanthine]
- protein melting temperature (Biolog plate: PM03B): 44.5

SMILES: O=P(O)(O)OC[C@H](O)CO (racemic) [DL-a-Glycerol Phosphate]
- protein melting temperature (Biolog plate: PM01): 44.6
- protein melting temperature (Biolog plate: PM04A): 44.4

SMILES: OC[C@@H](O)[C@H](O)[C@@H](O)CO [Xylitol]
- protein melting temperature (Biolog plate: PM02A): 44.3

SMILES: CC(=O)C(C)=O [2,3-Butanedione]
- protein melting temperature (Biolog plate: PM02A): 43.9

SMILES: NCC(=O)N[C@@H](CCC(N)=O)C(=O)O [Gly-Gln]
- protein melting temperature (Biolog plate: PM03B): 45.2

SMILES: CSCC[C@H](N)C(=O)O [L-Methionine]
- protein melting temperature (Biolog plate: PM02A): 43.5
- protein melting temperature (Biolog plate: PM03B): 44.7
- protein melting temperature (Biolog plate: PM04A): 43.9
- protein melting temperature (Biolog plate: PM05): 44.4

SMILES: NCCS [Cysteamine]
- protein melting temperature (Biolog plate: PM04A): 42.8

SMILES: NC(=O)c1[nH]cnc1N [(5) 4-Amino-Imidazole-4(5)-Carboxamide]
- protein melting temperature (Biolog plate: PM05): 43.7

SMILES: OC[C@H]1O[C@@H](O[C@H]2[C@H](O)[C@@H](O)[C@H](O[C@H]3[C@H](O)[C@H](O)[C@H](O[C@@H]4[C@H](O)[C@H](O)[C@H](O)O[C@@H]4CO)O[C@@H]3CO)O[C@@H]2CO)[C@@H](O)[C@@H](O)[C@@H]1O [Mannan]
- protein melting temperature (Biolog plate: PM02A): 44.8

SMILES: Nc1nc2c(ncn2[C@@H]2O[C@H](COP(=O)(O)O)[C@@H](O)[C@H]2O)c(=O)[nH]1 [Guanosine 5`-Monophosphate]
- protein melting temperature (Biolog plate: PM04A): 43.9

SMILES: O=C(O)/C=C/C(=O)O [Fumaric acid]
- protein melting temperature (Biolog plate: PM01): 44.6

SMILES: Cc1cn([C@H]2C[C@H](O)[C@@H](COP(=O)(O)O)O2)c(=O)[nH]c1=O [Thymidine 5`-Monophosphate]
- protein melting temperature (Biolog plate: PM04A): 43.7

SMILES: O=C(O)C(CO)OP(=O)(O)O [D-2-Phospho-Glyceric acid]
- protein melting temperature (Biolog plate: PM04A): 44.1

SMILES: O=C(O)Cc1ccc(O)cc1 [p-Hydroxyphenyl Acetic acid]
- protein melting temperature (Biolog plate: PM01): 45.3

SMILES: O=C(O)CCCO [g-Hydroxybutyric acid]
- protein melting temperature (Biolog plate: PM02A): 44.2

SMILES: Cc1ncc(C[n+]2csc(CCOP(=O)(O)OP(=O)(O)O)c2C)c(N)n1 [Thiamine Pyrophosphate]
- protein melting temperature (Biolog plate: PM05): 43.7

SMILES: N[C@@H]1[C@@H](O)[C@H](O)[C@@H](COP(=O)(O)O)O[C@@H]1O [D-Glucosamine-6-Phosphate]
- protein melting temperature (Biolog plate: PM04A): 44.1

SMILES: O=C1CC[C@@H](C(=O)O)O1 [a-Hydroxyglutaric acid-g-Lactone]
- protein melting temperature (Biolog plate: PM01): 45.3

SMILES: Cc1cn([C@H]2C[C@H](OP(=O)(O)O)[C@@H](CO)O2)c(=O)[nH]c1=O [Thymidine 3`-Monophosphate]
- protein melting temperature (Biolog plate: PM04A): 43.6

SMILES: CCOP(=O)(OCC)OCC [Triethyl Phosphate]
- protein melting temperature (Biolog plate: PM04A): 44.9

SMILES: CC(=O)C(C)O (centres undefined) [3-Hydroxy-2-butanone]
- protein melting temperature (Biolog plate: PM02A): 43.5

SMILES: N[C@H]1CCOC1=O [L-Homoserine Lactone]
- protein melting temperature (Biolog plate: PM05): 44.5

SMILES: O=C(O)[C@@H]1CCCN1 [L-Proline]
- protein melting temperature (Biolog plate: PM01): 44.3
- protein melting temperature (Biolog plate: PM03B): 45.1
- protein melting temperature (Biolog plate: PM05): 44.2

SMILES: Nc1ncnc2c1ncn2[C@@H]1O[C@H](CO)[C@@H](OP(=O)(O)O)[C@H]1O [Adenosine 3`-Monophosphate]
- protein melting temperature (Biolog plate: PM04A): 44.2

SMILES: NCCC[C@H](N)C(=O)O [L-Ornithine]
- protein melting temperature (Biolog plate: PM02A): 44.4
- protein melting temperature (Biolog plate: PM03B): 44.4
- protein melting temperature (Biolog plate: PM05): 44.7

SMILES: O[C@@H]1[C@@H](O)[C@@H](O)CO[C@H]1O [L-Arabinose]
- protein melting temperature (Biolog plate: PM01): 44.5

SMILES: O=C[C@H](O)[C@H](O)[C@@H](O)CO [L-Lyxose]
- protein melting temperature (Biolog plate: PM01): 44.7

SMILES: NC(=O)CC[C@H](N)C(=O)O [L-Glutamine]
- protein melting temperature (Biolog plate: PM01): 44
- protein melting temperature (Biolog plate: PM03B): 45.1
- protein melting temperature (Biolog plate: PM05): 44.9

SMILES: OCC1(O)OC[C@@H](O)[C@@H](O)[C@H]1O (stereo partly drawn) [D-Psicose]
- protein melting temperature (Biolog plate: PM01): 45

SMILES: CC(=O)C(=O)O [Pyruvic acid]
- protein melting temperature (Biolog plate: PM01): 44.9

SMILES: CSCCC(NC(C)=O)C(=O)O (racemic) [N-Acetyl-D,L-Methionine]
- protein melting temperature (Biolog plate: PM04A): 43.7

SMILES: NC(=O)C[C@H](N)C(=O)O [L-Asparagine]
- protein melting temperature (Biolog plate: PM01): 44.4
- protein melting temperature (Biolog plate: PM03B): 45.7
- protein melting temperature (Biolog plate: PM05): 44.5

SMILES: C[C@H](N)C(=O)N[C@@H](CCC(N)=O)C(=O)O [Ala-Gln]
- protein melting temperature (Biolog plate: PM03B): 45.1

SMILES: O=C(O)CC[C@@H](C(=O)O)N1C(=O)c2ccccc2C1=O [N-Phthaloyl-L-Glutamic acid]
- protein melting temperature (Biolog plate: PM03B): 44.9

SMILES: O=NO [Nitrite]
- protein melting temperature (Biolog plate: PM03B): 46

SMILES: C[C@H](N)C(=O)N[C@@H](Cc1cnc[nH]1)C(=O)O [Ala-His]
- protein melting temperature (Biolog plate: PM03B): 45.3

SMILES: NCCCCNCCCN [Spermidine]
- protein melting temperature (Biolog plate: PM05): 41.1

SMILES: CC(O)(CC(=O)O)C(=O)O (centres undefined) [Citramalic acid]
- protein melting temperature (Biolog plate: PM02A): 44.1

SMILES: C[C@@H](O)[C@H](N)C(=O)O [L-Threonine]
- protein melting temperature (Biolog plate: PM01): 44
- protein melting temperature (Biolog plate: PM03B): 44.8
- protein melting temperature (Biolog plate: PM05): 43.8

SMILES: C[C@H](N)C(=O)N[C@@H](CCC(=O)O)C(=O)O [Ala-Glu]
- protein melting temperature (Biolog plate: PM03B): 45.2

SMILES: Nc1ccc(C(=O)O)cc1 [p-Amino-Benzoic acid]
- protein melting temperature (Biolog plate: PM05): 43.7

SMILES: Nc1ccc(S(=O)(=O)O)cc1 [p-Aminobenzene Sulfonic acid]
- protein melting temperature (Biolog plate: PM04A): 44.5

SMILES: CSC[C@H](N)C(=O)O [S-Methyl-L-Cysteine]
- protein melting temperature (Biolog plate: PM04A): 43.7

SMILES: OP(O)(O)=S [Thiophosphate]
- protein melting temperature (Biolog plate: PM04A): 43.88 ± 0.26

SMILES: NC(=O)C[C@@H](N)C(=O)O [D-Asparagine]
- protein melting temperature (Biolog plate: PM03B): 44.8

SMILES: O=C(O)[C@H]1O[C@@H](O)[C@H](O)[C@@H](O)[C@H]1O [Pectin]
- protein melting temperature (Biolog plate: PM02A): 45

SMILES: Nc1cc[nH]c(=O)n1 [Cytosine]
- protein melting temperature (Biolog plate: PM03B): 45.2
- protein melting temperature (Biolog plate: PM05): 44.3

SMILES: O=C(O)CC(CC(=O)O)C(=O)O [Tricarballylic acid]
- protein melting temperature (Biolog plate: PM01): 44.3

Source: the supplement of paper PMC7806825
